Experimental data as given in patent publication US7192728B2, “Screening assays for agents that alter inhibitor of apoptosis (IAP) protein regulation of caspase activity” (The Burnham Institute, priority 1997, dated 2007).

Columns and labels:
pro-caspase-9 [1] = assay: Cytochrome c-induced processing of pro-caspase-9 in 293 cytosolic extracts; format: biochemical, human; conditions: for cytochrome c-induced pro-caspase-9 processing (in words): 0.2 μM GST-IAP, 30 min at 30° C.
Protocol: Cytochrome c induced processing of pro-caspase-9 was subsequently monitored by SDS-PAGE and autoradiography.
Pro-caspase-9 inhibition by Ac-DEVD-fmk, zVAD-fmk and XIAP was compared as follows. In vitro translated ^35S-labeled pro-caspase-9 was added to cytosolic extracts from 293 cells containing 10 μM cytochrome c and 1 mM dATP. Samples were incubated at 30° C. for 30 minutes in the presence of the indicated concentrations of inhibitors. Proteins were separated on SDS-PAGE gels, dried directly, and exposed to film.

pro-caspase-9 [2] = target: T1, pro-caspase-9 (Homo sapiens, UniProt P55211); assay: In vitro reconstituted pro-caspase-9 processing (Apaf-1, cytochrome c, dATP); format: biochemical; conditions: 0.1 μM protein; Apaf-1, 10 μM cytochrome c, 1 mM dATP
T1 construct: in vitro translated ^35S-labeled pro-caspase-9 and Apaf-1 were incubated individually or together; His6; made in house; host or cells: coupled in vitro transcription/translation in reticulocyte lysate (TNT kit, Promega)
T1 sequence (P55211 1-416): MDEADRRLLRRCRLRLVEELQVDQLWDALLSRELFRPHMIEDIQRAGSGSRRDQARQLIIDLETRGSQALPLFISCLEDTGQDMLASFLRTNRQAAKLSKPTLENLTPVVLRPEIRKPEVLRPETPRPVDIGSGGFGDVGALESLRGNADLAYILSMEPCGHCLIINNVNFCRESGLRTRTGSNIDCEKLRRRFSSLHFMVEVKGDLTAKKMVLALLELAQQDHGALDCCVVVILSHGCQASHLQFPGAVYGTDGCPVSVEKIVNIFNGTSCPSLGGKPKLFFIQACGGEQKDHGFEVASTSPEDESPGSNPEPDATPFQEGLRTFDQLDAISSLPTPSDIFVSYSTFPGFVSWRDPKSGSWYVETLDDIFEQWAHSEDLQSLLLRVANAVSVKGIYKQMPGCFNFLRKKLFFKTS
Protocol: For the results shown in FIGS. 5A and 5B, in vitro translated ^35S-labeled pro-caspase-9 and Apaf-1 were incubated individually or together with 10 μM cytochrome c and 1 mM dATP. Processing of pro-caspase-9 in the absence or presence of 0.1 μM of the indicated GST-IAP or 0.1 μM Bcl-XL was then monitored by SDS-PAGE and autoradiography.
To assay caspase-9 activation in vitro, one microgram of plasmids containing cDNAs encoding pro-caspase-9 (pET21(b)-Mch-6) or Apaf-1 (pcDNA3-Apaf-1) was in vitro transcribed and translated in the presence of [^35S]-L-methionine using a coupled transcription/translation TNT kit (Promega) according to manufacturer's instructions. Proteins were desalted and exchanged into Buffer A with Bio-spin P-6 columns (BioRad). […] The reactions were analyzed by SDS-PAGE and autoradiography. For some experiments, in vitro translated His6-caspase-9 was purified by metal chromatography.

caspase-9 = target: T2, caspase-9 (Homo sapiens, UniProt P55211); assay: Inhibition of purified recombinant active caspase-9; format: biochemical; conditions: for pro-caspase-3 activation by caspase-9, coupled Ac-DEVD-AFC hydrolysis (in words): coupled reaction
T2 construct: Full length N-terminally tagged caspase-9 was subcloned from pcDNA3; His6 (N); made in house; host or cells: E. coli BL21 (DE3), vector pET-23d
T2 sequence (P55211 1-315 limits assumed): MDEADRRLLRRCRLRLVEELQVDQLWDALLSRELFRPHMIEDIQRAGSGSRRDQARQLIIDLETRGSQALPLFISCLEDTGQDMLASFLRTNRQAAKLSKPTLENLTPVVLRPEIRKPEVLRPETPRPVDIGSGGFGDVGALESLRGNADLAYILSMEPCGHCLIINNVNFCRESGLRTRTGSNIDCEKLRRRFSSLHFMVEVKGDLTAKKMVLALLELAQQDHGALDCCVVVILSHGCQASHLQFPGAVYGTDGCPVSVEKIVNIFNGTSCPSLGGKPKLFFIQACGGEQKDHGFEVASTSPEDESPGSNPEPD
T2 sequence (P55211 331-416 limits assumed): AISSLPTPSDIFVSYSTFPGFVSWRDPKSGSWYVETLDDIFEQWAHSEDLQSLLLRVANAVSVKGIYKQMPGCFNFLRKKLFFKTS
Protocol: Caspase-9 activity was measured by monitoring the processing and activity of the purified recombinant zymogen form of caspase-3 that was produced in bacteria. Active caspase-9 (0.1 μM) was incubated with pro-caspase-3 (0.5 μM) in the presence or absence of GST-XIAP (0.1 μM). Experiments were performed with two independent preparations of active caspase-9. Samples were subsequently analyzed for pro-caspase-3 processing by immunoblot analysis. Asterisks denote the processed forms of the large subunit of caspase-3. Samples were simultaneously assayed for release of the AFC fluorophore from DEVD-AFC. Activity was arbitrarily designated as 100% for one of the two preparations of active caspase-9.
For the results shown in FIG. 7C, pro-caspase-9 was in vitro translated in reticulocyte lysates in the presence of ^35S-L-methionine and then purified by metal chromatography. […] Proteins were analyzed by SDS-PAGE and autoradiography. An asterisk denotes the processed form of caspase-9.

293T cells = assay: Caspase-9-induced pro-caspase-3 processing and apoptosis in transfected 293T cells; format: cell-based, human; conditions: co-transfection with FLAG-caspase-9; for number of apoptotic 293T cells (in words): DAPI staining
Protocol: Co-immunoprecipitations and immunoblot assays were performed as follows. […] Cells were collected 24–48 hrs later by centrifugation, washed in ice cold PBS and lysed for 20 minutes in lysis buffer (10 mM Hepes, 142 mM KCl, 5 mM MgCl2, 1 mM EGTA, 0.2% NP-40). Lysates were cleared by centrifugation at 16,000×g for 30 minutes. Myc-tagged IAP proteins were immunoprecipitated with 40 μl of anti-myc 9E10 antibody immobilized on Protein G-Sepharose (Santa Cruz) for 2 hrs. Immunoprecipitates were washed 3 times with lysis buffer, and bound proteins separated by SDS-PAGE and analyzed by immunoblotting using antibodies specific for the FLAG epitope (Kodak, Inc.), myc-epitope, or caspase-3.
Cell lysates were prepared 16 hr later for either (A) immunoblot analysis of caspase-3, or (B) DEVD-AFC. Immunoblot analysis of pro-caspase-3 was performed with lysates from cells induced to undergo apoptosis by overexpressing pro-caspase-9 in the absence or presence of the IAPs. For DEVD-AFC analysis, lysates were normalized for total protein content and assayed for hydrolysis of DEVD-AFC as described above. […] In panel D, IAP proteins were immunoprecipitated with anti-myc antibody immobilized on protein G-Sepharose at ˜16 hours post-transfection. Immunoblot analysis with anti-FLAG antibody was employed for detection of pro-caspase-9 in the resulting immune complexes. Lysates from the same cell (50 μg per lane) were also analyzed by immunoblotting using anti-FLAG and anti-myc antibodies to verify expression of […].

| Substance | potency relative to baculovirus p35 protein at inhibiting cytochrome c-induced processing of pro-caspase-9 (pro-caspase-9 [1]) | cytochrome c-induced pro-caspase-9 processing (in words) (pro-caspase-9 [1]) | concentration to completely abolish cytochrome c-mediated processing of pro-caspase-9 (pro-caspase-9 [1]; 10 μM cytochrome c, 1 mM dATP, 30° C., 30 min) | pro-caspase-9 processing in reconstituted system (in words) (pro-caspase-9 [2]) | processing of 35S-pro-caspase-9 by active caspase-9 (in words) (caspase-9; 0.1 μM caspase-9, 0.1 μM GST-XIAP, 30° C., 1 hr) | pro-caspase-3 activation by caspase-9, coupled Ac-DEVD-AFC hydrolysis (in words) (caspase-9) | cleavage of pro-caspase-3 by caspase-9, immunoblot (in words) (caspase-9; equimolar to caspase-9 (0.1 μM), pro-caspase-3 0.5 μM) | caspase-9-induced cleavage of pro-caspase-3 and Ac-DEVD-AFC cleavage activity (in words) (293T cells) | number of apoptotic 293T cells (in words) (293T cells) |
| --- | --- | --- | --- | --- | --- | --- | --- | --- | --- |
| XIAP: X chromosome linked inhibitor of apoptosis protein (Genbank U32974), used mostly as recombinant GST fusion or expressed from plasmid | about 5 fold | nearly completely abolished | less than 0.2 μM | completely blocked | potently inhibited | efficiently inhibited | strongly inhibited | markedly reduced | a reduction in the number of apoptotic 293T cells |
| c-IAP-2: cellular IAP protein c-IAP-2/HIAP-1/hMIHC, recombinant GST fusion or myc-tagged |  | inhibited pro-caspase-9 processing, albeit to a lesser extent |  | completely blocked |  | efficiently inhibited |  | markedly reduced | a reduction in the number of apoptotic 293T cells |
